Data set [1] deals with CIA. The following applies: 10 mg/kg, cited from earlier work.
Data set [2] addresses TRPM4 (Homo sapiens, UniProt Q8TD43). The following applies: cited from earlier work.
Data set [3] in a line: Water solubility / hydrophobicity. It is filed as physicochemical.
The test system of data set [4] is OCL formation. As to the kind of experiment: OCL (osteoclast) formation assay. The class given is cell-based.
Data set [5] deals with osteoclasts and CD3 T cells in tissue sections. Briefly: Antibody labeling of sections (anti-ATPa3/TCIRG osteoclasts, anti-CD3 T cells) in CIA mice. It is filed as in vivo, mouse. The following applies: high dose CIA/DCPA relative to CIA/placebo. On the procedure: Antibodies used were, for TCIRGI, mouse monoclonal (clone 6H3) antibody (Sigma-Aldrich) at 1:100 dilution. For CD3, anti-CD3 mouse monoclonal antibody (PC3/188A) against synthetic peptide spanning amino acids 156-168 of the cytoplasmic domain of human CD3-ε chain was used, at 1:100 dilution. Briefly, sections were blocked in PBS with 2% hydrogen peroxide for 5 minutes and then in PBS with 2% BSA for two hours, then reacted overnight with antibodies at indicated concentrations in PBS with 0.01% tween 20, and after washing with biotinylated anti-mouse at 1:1000 dilution. Then streptavidin-horseradish peroxidase, and diaminobenzidine substrate were added. Hematoxylin and eosin counterstain was use to show tissue features. Imaging used a Nikon TE2000 inverted microscope, with 14-bit 2048×2048 pixel monochrome CCD and RGB filters to reconstruct color (Spot, Sterling Heights, Mich.).

Data set [6] has as its system human or murine osteoclasts. The following applies: earlier study (ref 5), cited from earlier work.
In data set [7] the test system is collagen-induced arthritis (CIA). Briefly: Collagen-induced arthritis (CIA) in mice, blinded arthritic index and paw swelling. The class given is in vivo, mouse. The following applies: DCPA 21 mg/kg/day.
Procedure: Effects on swelling, inflammatory cell invasion in joints, serum cytokines and bone erosion were measured.
Male DBA/1 mice were used, from Harlan Laboratories, Frederick Md. […] Briefly, type II collagen (CII) was injected in complete Freund's adjuvant at 100 μg per animal (˜4 μg/kg) at day 1 and, after 21 days, a booster dose of 100 μg C II in Freund's incomplete adjuvant. […] Mice were monitored for arthritis and scored in a blinded manner. Swelling of paws was be graded on scale from 0 to 4 indicating number of swollen digits. All paws were evaluated, so that the maximal arthritic index per mouse was 16. Additionally, hind paw swelling was measured using digital calipers on day 0, and each day on days 23-40. Analysis of the bones and joints for arthritis was done on H&E stained sections of hind paws, by blinded observation. This scored synovial expansion and inflammation, joint damage including pannus, and bone degradation, each on a scale of 0-3, with maximum score of 9.
For data set [8] the test system is unchanged. As to the kind of experiment: Histology of H&E stained hind paw sections in CIA mice, blinded score. It is filed as in vivo, mouse.
Procedure: Male DBA/1 mice were used, from Harlan Laboratories, Frederick Md. […] Briefly, type II collagen (CII) was injected in complete Freund's adjuvant at 100 μg per animal (˜4 μg/kg) at day 1 and, after 21 days, a booster dose of 100 μg C II in Freund's incomplete adjuvant. […] Mice were monitored for arthritis and scored in a blinded manner. Swelling of paws was be graded on scale from 0 to 4 indicating number of swollen digits. All paws were evaluated, so that the maximal arthritic index per mouse was 16. Additionally, hind paw swelling was measured using digital calipers on day 0, and each day on days 23-40. Analysis of the bones and joints for arthritis was done on H&E stained sections of hind paws, by blinded observation. This scored synovial expansion and inflammation, joint damage including pannus, and bone degradation, each on a scale of 0-3, with maximum score of 9. […] For histological analysis, two paws from each animal were analyzed separately and blindly, and are calculated as two specimens per animal; however, if averages are used with n=animal number, there was no effect on differences (not shown).
Hind paws of animals were decalcified, paraffin embedded, cut, and stained with hematoxylin and eosin (FIGS. 2A-C). […] Therefore, blinded qualitative grading was used. […]
Data set [9] concerns the target CRAC channel (STIM1/Orail) (Homo sapiens, UniProt Q96D31). The following applies: by destabilizing STIM1/Orail interaction; Zhou et al., 2011; cited from earlier work.
Data set [10] in a line: General health of treated CIA mice (weight, activity). It is filed as in vivo, mouse. The settings on record: about three weeks of DCPA.
Procedure: Male DBA/1 mice were used, from Harlan Laboratories, Frederick Md. […] Briefly, type II collagen (CII) was injected in complete Freund's adjuvant at 100 μg per animal (˜4 μg/kg) at day 1 and, after 21 days, a booster dose of 100 μg C II in Freund's incomplete adjuvant. Inflammation was apparent 4-8 days after the second dose, in 80% of treated joints. […] Mice were monitored for arthritis and scored in a blinded manner. Swelling of paws was be graded on scale from 0 to 4 indicating number of swollen digits. All paws were evaluated, so that the maximal arthritic index per mouse was 16. Additionally, hind paw swelling was measured using digital calipers on day 0, and each day on days 23-40. Analysis of the bones and joints for arthritis was done on H&E stained sections of hind paws, by blinded observation. This scored synovial expansion and inflammation, joint damage including pannus, and bone degradation, each on a scale of 0-3, with maximum score of 9. […] For histological analysis, two paws from each animal were analyzed separately and blindly, and are calculated as two specimens per animal; however, if averages are used with n=animal number, there was no effect on differences (not shown).
The conditions of data set [11]: humans, cited from earlier work.
Data set [12] relates to collagen-induced arthritis (CIA). As to the kind of experiment: Micro-computed tomography and morphometry of paws in CIA mice. It is filed as in vivo, mouse. The settings on record: high dose CIA/DCPA (21 mg). How it is done:
Analysis by micro-computed tomography was as described (14). In brief, paws fixed in Millonig's solution were scanned on a Viva CT40 instrument (Scanco, Bassersdorf, Switzerland) with three-dimensional reconstruction by the manufacturer's instrument-specific software. The scan section increment was 20 μm; 3-D reconstruction used a density cutoff of 211 mg/cm^3. Analysis of trabecular thickness and trabecular spacing used the plate model.

Data set [13] has as its system serum inflammatory cytokines. As to the kind of experiment: Serum analysis for cytokines in CIA mice (V-PLEX panels). The class given is in vivo, mouse. How it is done: Heart blood at sacrifice, 40 days, was used for analysis. Plasma was separated by centrifiigation and frozen in aliquots at −20° C. until used. Production of anti-CII antibodies was evaluated by ELISA (Rheumera, Astarte Biologies, Redmond, Wash.). Production of cytokines was evaluated using V-PLEX panels in 96-well plates (Meso Scale Discovery, Rockville, Md.).

Entries after “also recorded” stand apart in the source; their conditions may differ. Read-outs that look alike come from different tables or passages of the source.

Chain of CRAC channel (STIM1/Orail) (Q96D31 whole entry): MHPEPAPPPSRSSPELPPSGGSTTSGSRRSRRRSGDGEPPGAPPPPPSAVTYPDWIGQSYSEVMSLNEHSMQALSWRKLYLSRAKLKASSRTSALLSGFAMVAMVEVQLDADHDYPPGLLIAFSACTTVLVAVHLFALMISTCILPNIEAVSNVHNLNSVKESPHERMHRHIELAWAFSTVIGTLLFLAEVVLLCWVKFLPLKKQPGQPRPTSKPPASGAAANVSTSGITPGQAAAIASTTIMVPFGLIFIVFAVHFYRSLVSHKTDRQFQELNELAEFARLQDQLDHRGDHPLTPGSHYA
Chain of TRPM4 (Q8TD43 whole entry, species assumed): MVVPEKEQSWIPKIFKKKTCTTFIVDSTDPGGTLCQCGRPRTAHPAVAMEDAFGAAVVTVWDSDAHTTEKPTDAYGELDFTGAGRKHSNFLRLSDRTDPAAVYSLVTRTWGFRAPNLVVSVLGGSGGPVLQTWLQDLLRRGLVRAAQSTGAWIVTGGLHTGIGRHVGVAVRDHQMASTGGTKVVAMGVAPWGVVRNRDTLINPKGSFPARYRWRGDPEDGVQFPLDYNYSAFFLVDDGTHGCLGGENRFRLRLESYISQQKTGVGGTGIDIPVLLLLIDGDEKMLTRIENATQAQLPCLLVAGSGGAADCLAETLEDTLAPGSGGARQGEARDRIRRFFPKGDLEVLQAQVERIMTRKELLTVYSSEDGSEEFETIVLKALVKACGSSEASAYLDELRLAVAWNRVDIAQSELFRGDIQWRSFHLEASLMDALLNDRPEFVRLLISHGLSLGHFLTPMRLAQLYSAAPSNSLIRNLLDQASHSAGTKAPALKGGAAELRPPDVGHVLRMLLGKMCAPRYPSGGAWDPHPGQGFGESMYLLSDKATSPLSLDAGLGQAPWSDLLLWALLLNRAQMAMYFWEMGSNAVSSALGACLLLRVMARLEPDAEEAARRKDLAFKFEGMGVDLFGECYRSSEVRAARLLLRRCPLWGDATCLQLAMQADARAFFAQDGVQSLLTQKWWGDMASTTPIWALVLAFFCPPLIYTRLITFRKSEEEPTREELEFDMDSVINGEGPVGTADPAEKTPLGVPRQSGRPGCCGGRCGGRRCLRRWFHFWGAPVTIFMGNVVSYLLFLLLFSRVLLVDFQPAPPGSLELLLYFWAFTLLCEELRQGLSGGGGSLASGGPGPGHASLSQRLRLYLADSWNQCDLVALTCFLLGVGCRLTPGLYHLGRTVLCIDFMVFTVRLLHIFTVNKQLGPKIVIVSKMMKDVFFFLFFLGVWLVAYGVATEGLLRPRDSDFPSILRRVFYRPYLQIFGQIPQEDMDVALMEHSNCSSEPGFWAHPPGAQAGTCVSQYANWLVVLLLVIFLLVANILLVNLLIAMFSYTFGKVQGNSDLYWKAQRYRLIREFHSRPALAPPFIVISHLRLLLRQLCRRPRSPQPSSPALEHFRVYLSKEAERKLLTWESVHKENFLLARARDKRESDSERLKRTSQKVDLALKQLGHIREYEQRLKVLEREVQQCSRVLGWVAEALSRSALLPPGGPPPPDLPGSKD

Take `Cc1nnsc1C(=O)Nc1ccc(-n2nc(C(F)(F)F)cc2C(F)(F)F)cc1` [BTP-2, 4-methy-4-[3,5-bis(trifluorometliyl)-1H-pyrazol-1-yl]-1,2,3-thiadiazole-5-carboxanilide]: in data set [1] (10 days after induction), the “inflammatory cytokines IL1, IL6 and TNF-α” value was “near-baseline levels”. The “effect on CIA” value in [1] is recorded as “suppressed CIA”. Also, the “concentration suppressing cytokines including 1L2 and calcium influx by TRPM4” value in [2] is “low nanomolar concentrations”.
With `O=C(O)CC(=O)Nc1ccc(Cl)c(Cl)c1` [DCOPA, 3-(3,4-dichloroanilino)-3-oxopropanoic acid], the “water solubility compared with DCPA” value in data set [3] was “more water soluble compound than DCPA”.
In the case of `CN(C(=O)CC(=O)O)c1ccc(Cl)c(Cl)c1` [N-MeDCOPA], in data set [4] (100 μM), the “inhibition of OCL formation” value is “shows inhibition of OCL formation”.
For N-methyl-DCPA [N-MeDCPA], in [4] (OCL assay findings), the “toxicity compared with DCPA” value is given as “less toxic than DCPA”. For the same compound, the “effect in OCL assay compared with DCPA” value in [4] (same doses as DCPA, took longer) is on record as “looked as good as DCPA”. In [3], the hydrophobicity entry is recorded as “very hydrophobic”.
With `CCC(=O)Nc1ccc(Cl)c(Cl)c1` [DCPA, N-(3,4-dichlorophenyl)propanamide], the “osteoclast surface area (ATPa3 labeling)” value in data set [5] was “large and statistically significant reduction”. In data set [6], the “osteoclast differentiation / formation in vitro” value is “inhibits osteoclast formation in vitro”. The “osteoclast differentiation / formation in vitro” value in data set [6] (listed as 3,4-dichloropropionaniline) is listed as “reduced differentiation of bone degrading osteoclasts”. In data set [7], the “overall swelling of joints” value is “reduced by a similar amount” and the “time of maximal effect after collagen booster” value fell in the range of 12 to 17 days. For the same compound, the “reduction of bone and cartilage damage in sections of animal feet” value in data set [8] (DCPA 21 mg/kg/day) was −50%. This compound also came in with a histological damage score in data set [8] (ankle bone of one animal, high dose CIA/DCPA (21 mg DCPA), 40 days, scale 0-9) of 4. The CRAC channel activation entry in data set [9] is recorded as “inhibits CRAC channel activation”. The “adverse effects on animal weight or activity” value in [10] is “no adverse effects”. In addition, the “toxicity of intermittent exposure in mg/kg quantities” value in [11] was “minimal apparent toxicity”. Further, the “dose that can cause fatal methemoglobinemia” value in data set [11] (massive doses) is 4000 to 5000 mg/kg. The “bone volume/total volume by micro-CT” value in data set [12] (p=0.03 vs CIA/placebo) is on record as “statistically greater than CIA/placebo animals”. Besides, in data set [12] (sacrifice day 40), the “bone density by micro-CT” value is “indistinguishable from untreated controls”. For the same compound, in [13] (DCPA 21 mg/kg/day, day 40 serum, vs CIA/placebo), the “effect on serum cytokines (TNF-α, IL-1, IL-6, CXCL1, IFN-γ)” value is recorded as “no effect; also recorded: did not affect”. Also, the “effect on cytokine production of IL-12p70 or IL-10” value in data set [13] (DCPA, serum of CIA mice) was “did not significantly affect”.

(Values after patent US9950992B2, “Water soluble haloanilide calcium-release calcium channel inhibitory compounds and methods to control bone erosion and inflammation associated with arthritides” (West Virginia University, priority 2016, dated 2018).)
